Results published in patent US10286084B2, “Compositions for the inactivation of virus replication and methods of making and using the same” (priority 2014, dated 2019).

Test system: retinoblastoma (Rb) protein
Experiment: Western blot and pRB quantification in transfected HeLa cells
Assay type: cell-based, human
Description: Phenotypic analysis of RGNs in HeLa was performed using the Fugene6 transfection reagent as per the manufacturer's protocol. Cells were plated at 2.5×10^5 cells per well in 6-well plates and transfected with a 3 to 1 ratio of RGN expression vector to pLCE (a GFP-expressing plasmid included to determine transfection efficiency). SiHa cells were transfected with HPV-16-specific RGN expression vectors using Lipofectamine3000 (Clontech) using the manufacturer's protocol. Cells were then harvested and lysed in SDS/β-mercaptoethanol protein lysis buffer 48 hours post transfection. Lysates were subjected to electrophoresis on 4-20% SDS-polyacrylamide gels (Bio-Rad) and transferred to nitrocellulose membranes. The membranes were then probed in 5% milk-PBS-T (PBS, 0.1% Tween 20, 0.5% bovine serum albumin) with the following antibodies: anti-Flag (Sigma F1804), a rabbit Rev polyclonal antiserum (Malim et al., 1989), anti-β-actin (Santa Cruz S.C.-47778), anti-p53 (Santa Cruz S.C.-126), anti-p21 (Santa Cruz S.C.-397), and anti-Rb (BD Pharmigen 554136). The membranes were washed in PBS-T, incubated with a species-specific secondary antibody, and then washed again in PBS-T. The membranes were incubated with Western Bright Sirius Western blot detection kit (Advansta) and signals captured using GeneSnap and quantified using GeneTools (Syngene). […]

**Q.** Which “increase in Rb expression normalized to β-actin internal control” value (Spy Cas9, 48 h post-transfection) does the source give for “E7 sgRNA1: Spy Cas9 sgRNA for HPV-18 E7, GGAGCAATTAAGCGACTCAG; SEQ ID NO: 10 (expressed or natural sequence)” here?
**A.** 1.4±0.03 fold

**Q.** What about the “increase in Rb expression over the control, decrease of Cas9 expression taken into account” value (Spy Cas9, p=0.011) of the same substance?
**A.** 5.54±1.42 fold
